Data from ChEMBL document CHEMBL1201862, “PubChem BioAssay data set” (2004).
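The compound was tested at five concentrations on cells cultured in 96-well plates, with a 48-hour exposure period. At the GI50, growth is halved.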 Activity calls are given as the source filed them. Rule as the data show it: active = GI50 up to about 1.1 µM and inactive = higher.

What was measured:
Assay in all cases: NCI-60 cell line screen, 48 h
LOX IMVI = tested on: LOX IMVI
OVCAR-8 = tested on: OVCAR-8
Malme-3M = tested on: Malme-3M
CCRF-CEM = tested on: CCRF-CEM
OVCAR-4 = tested on: OVCAR-4
A498 = tested on: A498
NCI/ADR-RES = tested on: NCI/ADR-RES
HOP-92 = tested on: HOP-92
NCI-H226 = tested on: NCI-H226
SK-OV-3 = tested on: SK-OV-3
SK-MEL-2 = tested on: SK-MEL-2
SF-268 = tested on: SF-268
HT-29 = tested on: HT-29
UACC-257 = tested on: UACC-257
KM12 = tested on: KM12
RXF 393 = tested on: RXF 393
OVCAR-3 = tested on: OVCAR-3
NCI-H522 = tested on: NCI-H522
NCI-H460 = tested on: NCI-H460
K562 = tested on: K562

Compound	GI50 (LOX IMVI)	GI50 (OVCAR-8)	GI50 (Malme-3M)	GI50 (CCRF-CEM)	GI50 (OVCAR-4)	GI50 (A498)	GI50 (NCI/ADR-RES)	GI50 (HOP-92)	GI50 (NCI-H226)	GI50 (SK-OV-3)	GI50 (SK-MEL-2)	GI50 (SF-268)	GI50 (HT-29)	GI50 (UACC-257)	GI50 (KM12)	GI50 (RXF 393)	GI50 (OVCAR-3)	GI50 (NCI-H522)	GI50 (NCI-H460)	GI50 (K562)
Cc1nc(N)nc(S)c1CCCNc1ccccc1	54.5 µM (inactive)	20.5 µM (inactive)	35.6 µM (inactive)	28 µM (inactive)	> 100 µM (inactive)	26.1 µM (inactive)	> 100 µM (inactive)	> 100 µM (inactive)	> 100 µM (inactive)	> 100 µM (inactive)	60.1 µM (inactive)	62.5 µM (inactive)	68.7 µM (inactive)	26.9 µM (inactive)	76.7 µM (inactive)	> 100 µM (inactive)	> 100 µM (inactive)	34.4 µM (inactive)	35 µM (inactive)	2.36 µM (inactive)
OC(COc1ccccc1)CN1CCCCC1 (stereo not given)	> 100 µM (inactive)	> 100 µM (inactive)	> 100 µM (inactive)	> 100 µM (inactive)	> 100 µM (inactive)	> 100 µM (inactive)	> 100 µM (inactive)	> 100 µM (inactive)	> 100 µM (inactive)	> 100 µM (inactive)	> 100 µM (inactive)	> 100 µM (inactive)	> 100 µM (inactive)	> 100 µM (inactive)	> 100 µM (inactive)	> 100 µM (inactive)	> 100 µM (inactive)	> 100 µM (inactive)	> 100 µM (inactive)	> 100 µM (inactive)
CCCCCNC(=O)c1cc2cc(CCl)ccc2oc1=O	17.3 µM (inactive)	35.7 µM (inactive)	2.36 µM (inactive)	> 100 µM (inactive)	7.23 µM (inactive)	1.86 µM (inactive)	16.4 µM (inactive)	1.95 µM (inactive)	14.2 µM (inactive)	5.19 µM (inactive)	3.1 µM (inactive)	3.19 µM (inactive)	2.42 µM (inactive)	2.04 µM (inactive)	10.2 µM (inactive)	0.798 µM (active)	8.02 µM (inactive)	3.24 µM (inactive)	1.61 µM (inactive)	5.62 µM (inactive)
